Laboratory results: US9790169B2, “IDO inhibitors” (BRISTOL-MYERS SQUIBB COMPANY, priority 2015, dated 2017)

Each compound was assayed against human IDO1 (Homo sapiens, UniProt P14902) (assay: Assessment of human IDO-1 inhibitory activity in HEK cells (human IDO1/HEK293 cells, kynurenine read-out with Ehrlich reagent, absorbance 490 nm)). Settings: HEK Human IDO-1 cellular assay.
Assay type: cell-based
Design: expressed in transfected cells
In short: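 Kynurenine output from stably IDO1-transfected HEK293 cells (10,000/well, phenol red-free RPMI, 10% FBS) after 20 h compound exposure at 37 °C. The reaction was stopped with 0.2% TCA and heated 30 min at 50 °C, then the supernatant was mixed with Ehrlich reagent and read at 490 nm. IC50 was set against DMSO and a 500 nM reference standard as 0 and 100% inhibition.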

Sequence of human IDO1 (P14902 whole entry): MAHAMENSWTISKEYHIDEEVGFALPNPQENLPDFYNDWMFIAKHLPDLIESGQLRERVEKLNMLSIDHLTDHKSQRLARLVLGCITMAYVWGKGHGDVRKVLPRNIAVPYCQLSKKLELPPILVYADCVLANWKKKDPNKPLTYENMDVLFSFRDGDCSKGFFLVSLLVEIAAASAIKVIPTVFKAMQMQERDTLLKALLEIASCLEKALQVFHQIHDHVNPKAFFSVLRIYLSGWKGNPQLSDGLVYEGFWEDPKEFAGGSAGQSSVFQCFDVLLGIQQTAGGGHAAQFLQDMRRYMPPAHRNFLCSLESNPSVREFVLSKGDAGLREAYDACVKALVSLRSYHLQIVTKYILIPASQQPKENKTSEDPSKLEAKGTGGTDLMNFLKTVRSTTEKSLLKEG

| IC50 [nM] | Compound |
| --- | --- |
| > 50 | COc1ncc(Nc2cc(C(C)CC(=O)O)ccc2N(CC(C)(C)O)C2CCOCC2)cn1 (single isomer, unassigned) [Example 192, 3-(4-((2-hydroxy-2-methylpropyl)(tetrahydro-2H-pyran-4-yl)amino)-3-((2-methoxypyrimidin-5-yl)amino)phenyl)butanoic acid] |
| < 50 | CC(CC(=O)O)c1ccc(N(CC(C)(C)O)C2CCOCC2)c(Nc2ccc(C#N)cc2)c1 (single isomer, unassigned) [Example 194, 3-(3-((4-cyanophenyl)amino)-4-((2-hydroxy-2-methylpropyl)(tetrahydro-2H-pyran-4-yl)amino)phenyl)butanoic acid] |
| < 5 | CC(CC(=O)O)c1ccc(N(CC(C)(C)O)C2CCOCC2)c(Nc2ccc(Cl)cc2)c1 (single isomer, unassigned) [Example 195, 3-(3-((4-Chlorophenyl)amino)-4-((2-hydroxy-2-methylpropyl)(tetrahydro-2H-pyran-4-yl)amino)phenyl)butanoic acid] |
| < 5 | CC(CC(=O)O)c1ccc(N(CC(C)(C)O)C2CCOCC2)c(Nc2ccc(C#N)cc2)c1 (single isomer, unassigned) [Example 196, 3-(3-((4-Cyanophenyl)amino)-4-((2-hydroxy-2-methylpropyl)(tetrahydro-2H-pyran-4-yl)amino)phenyl)butanoic acid] |
| > 50 | CCOc1ncc(Nc2cc([C@@H](CC)CC(=O)O)ccc2N(CC(C)(C)O)C2CCOCC2)cn1 (single isomer, unassigned) [Example 197] |
| < 5 | CC[C@@H](CC(=O)O)c1ccc(N(CC(C)(C)O)C2CCOCC2)c(Nc2ccc(Cl)cc2)c1 (single isomer, unassigned) [Example 198] |
| < 5 | CC[C@@H](CC(=O)O)c1ccc(N(CC(C)(C)O)C2CCOCC2)c(Nc2ccc3c(c2)OC(F)(F)O3)c1 (single isomer, unassigned) [Example 199] |
| < 50 | CC[C@@H](CC(=O)O)c1ccc(N(CC(C)(C)O)C2CCOCC2)c(Nc2ccc(Cl)c(OCC(F)(F)F)c2)c1 (single isomer, unassigned) [Example 200] |
| < 50 | CCOc1ccc(Nc2cc([C@@H](CC)CC(=O)O)ccc2N(CC(C)(C)O)C2CCOCC2)c(F)c1 (single isomer, unassigned) [Example 201] |
| > 50 | CCOc1ncc(Nc2cc([C@H](CC)CC(=O)O)ccc2N(CC(C)(C)O)C2CCOCC2)cn1 (single isomer, unassigned) [Example 202] |
| < 5 | CC[C@H](CC(=O)O)c1ccc(N(CC(C)(C)O)C2CCOCC2)c(Nc2ccc(Cl)cc2)c1 (single isomer, unassigned) [Example 203] |
| < 5 | CC[C@H](CC(=O)O)c1ccc(N(CC(C)(C)O)C2CCOCC2)c(Nc2ccc3c(c2)OC(F)(F)O3)c1 (single isomer, unassigned) [Example 204] |
| < 50 | CC[C@H](CC(=O)O)c1ccc(N(CC(C)(C)O)C2CCOCC2)c(Nc2ccc(Cl)c(OCC(F)(F)F)c2)c1 (single isomer, unassigned) [Example 205] |
| < 50 | CCOc1ccc(Nc2cc([C@H](CC)CC(=O)O)ccc2N(CC(C)(C)O)C2CCOCC2)c(F)c1 (single isomer, unassigned) [Example 206] |
| > 50 | CC[C@@H](CC(=O)O)c1ccc(N(CC(C)(C)O)C2CCOCC2)c(NC(=O)Nc2ccc(C)cc2)c1 (single isomer, unassigned) [Example 207] |
| > 50 | CC[C@H](CC(=O)O)c1ccc(N(CC(C)(C)O)C2CCOCC2)c(NC(=O)Nc2ccc(C)cc2)c1 (single isomer, unassigned) [Example 208] |
| > 50 | CC[C@H](CC(=O)O)c1ccc(N(CC(C)C)C2CCS(=O)(=O)CC2)c(NC(=O)Nc2ccc(C)cc2)c1 (single isomer, unassigned) [Example 209] |
| > 50 | CC[C@@H](CC(=O)O)c1ccc(N(CC(C)C)C2CCS(=O)(=O)CC2)c(NC(=O)Nc2ccc(C)cc2)c1 (single isomer, unassigned) [Example 210] |
| > 50 | CC[C@H](CC(=O)O)c1ccc(N(CC(C)C)C2CCS(=O)(=O)CC2)c(NC(=O)Nc2ccc(OC)cc2F)c1 (single isomer, unassigned) [Example 211] |
| > 50 | CCOc1ccc(NC(=O)Nc2cc([C@H](CC)CC(=O)O)ccc2N(CC(C)C)C2CCS(=O)(=O)CC2)cc1 (single isomer, unassigned) [Example 212] |
| > 50 | CC[C@H](CC(=O)O)c1ccc(N(CC(C)C)C2CCS(=O)(=O)CC2)c(NC(=O)Nc2cc(C)on2)c1 (single isomer, unassigned) [Example 213] |
| < 5 | CC[C@H](CC(=O)O)c1ccc(N(CC(C)C)C2CCS(=O)(=O)CC2)c(Nc2ccc3c(c2)OC(F)(F)O3)c1 (single isomer, unassigned) [Example 215] |
| > 50 | CC[C@@H](CC(=O)O)c1ccc(N(CC(C)C)C2CCS(=O)(=O)CC2)c(NC(=O)Nc2ccc(OC)cc2F)c1 (single isomer, unassigned) [Example 216] |
| > 50 | CCOc1ccc(NC(=O)Nc2cc([C@@H](CC)CC(=O)O)ccc2N(CC(C)C)C2CCS(=O)(=O)CC2)cc1 (single isomer, unassigned) [Example 217] |
| < 5 | CC[C@@H](CC(=O)O)c1ccc(N(CC(C)C)C2CCS(=O)(=O)CC2)c(Nc2ccc3sc(C)nc3c2)c1 (single isomer, unassigned) [Example 219] |
| < 5 | CC[C@@H](CC(=O)O)c1ccc(N(CC(C)C)C2CCS(=O)(=O)CC2)c(Nc2ccc3c(c2)OC(F)(F)O3)c1 (single isomer, unassigned) [Example 220] |

| IC50 [nM] | Compound |
| --- | --- |
| < 5 | CC[C@@H](CC(=O)O)c1ccc(N(CC(C)(C)O)C2CCCCC2)c(Nc2ccc(F)cc2)c1 (single isomer, unassigned) [Example 225] |
| < 5 | CC[C@@H](CC(=O)O)c1ccc(N(CC(C)(C)O)C2CCCCC2)c(Nc2ccc(OC(F)F)cc2)c1 (single isomer, unassigned) [Example 226] |
| < 5 | CC[C@@H](CC(=O)O)c1ccc(N(CC(C)(C)O)C2CCCCC2)c(Nc2ccc(C#N)cc2)c1 (single isomer, unassigned) [Example 227] |
| < 50 | CCOc1ncc(Nc2cc([C@@H](CC)CC(=O)O)ccc2N(CC(C)(C)O)C2CCCCC2)cn1 (single isomer, unassigned) [Example 229] |
| < 50 | CCc1cnc(Nc2cc([C@@H](CC)CC(=O)O)ccc2N(CC(C)(C)O)C2CCCCC2)nc1 (single isomer, unassigned) [Example 230] |
| < 5 | CC[C@@H](CC(=O)O)c1ccc(N(CC(C)(C)O)C2CCCCC2)c(Nc2ccc(Cl)cc2)c1 (single isomer, unassigned) [Example 231] |
| < 50 | CC[C@H](CC(=O)O)c1ccc(N(CC(C)(C)O)C2CCCCC2)c(Nc2ccc(F)cc2)c1 (single isomer, unassigned) [Example 236] |
| < 5 | CC[C@H](CC(=O)O)c1ccc(N(CC(C)(C)O)C2CCCCC2)c(Nc2ccc(OC(F)F)cc2)c1 (single isomer, unassigned) [Example 237] |
| < 5 | CC[C@H](CC(=O)O)c1ccc(N(CC(C)(C)O)C2CCCCC2)c(Nc2ccc(C#N)cc2)c1 (single isomer, unassigned) [Example 238] |
| < 50 | CCc1ccc(Nc2cc([C@H](CC)CC(=O)O)ccc2N(CC(C)(C)O)C2CCCCC2)cc1 (single isomer, unassigned) [Example 239] |
| < 50 | CCOc1ncc(Nc2cc([C@H](CC)CC(=O)O)ccc2N(CC(C)(C)O)C2CCCCC2)cn1 (single isomer, unassigned) [Example 240] |
| < 50 | CCc1cnc(Nc2cc([C@H](CC)CC(=O)O)ccc2N(CC(C)(C)O)C2CCCCC2)nc1 (single isomer, unassigned) [Example 241] |
| < 5 | CC[C@H](CC(=O)O)c1ccc(N(CC(C)(C)O)C2CCCCC2)c(Nc2ccc(Cl)cc2)c1 (single isomer, unassigned) [Example 242] |
| > 50 | CCC(CC(=O)O)c1ccc(N2CC[C@H](O)C2)c(Nc2ccc(Cl)cc2)c1 (single isomer, unassigned) [Example 266] |
| > 50 | CCOc1ncc(Nc2cc([C@@H](CC)CC(=O)O)ccc2N(CC2CC2)CC(C)(C)O)cn1 (single isomer, unassigned) [Example 270] |
| < 5 | CC[C@H](CC(=O)O)c1ccc(N(CC2CC2)CC(C)(C)O)c(Nc2ccc(Cl)cc2)c1 (single isomer, unassigned) [Example 271] |
| < 5 | CC[C@H](CC(=O)O)c1ccc(N(CC2CC2)CC(C)(C)O)c(Nc2ccc(C#N)cc2)c1 (single isomer, unassigned) [Example 272] |
| < 50 | CC[C@H](CC(=O)O)c1ccc(N(CC2CC2)CC(C)(C)O)c(Nc2ccc(F)cc2)c1 (single isomer, unassigned) [Example 273] |
| < 50 | CCOc1ncc(Nc2cc([C@H](CC)CC(=O)O)ccc2N(CC2CC2)CC(C)(C)O)cn1 (single isomer, unassigned) [Example 274] |
| < 5 | CC[C@@H](CC(=O)O)c1ccc(N(CC)C2CCCCC2)c(Nc2ccc(Cl)cc2)c1 (single isomer, unassigned) [Example 279] |
| < 50 | CCOc1ncc(Nc2cc([C@@H](CC)CC(=O)O)ccc2N(CC)C2CCCCC2)cn1 (single isomer, unassigned) [Example 281] |
| < 5 | CCc1ccc(Nc2cc([C@@H](CC)CC(=O)O)ccc2N(CC)C2CCCCC2)cc1 (single isomer, unassigned) [Example 282] |
| < 5 | CC[C@@H](CC(=O)O)c1ccc(N(CC)C2CCCCC2)c(Nc2ccc(C#N)cc2)c1 (single isomer, unassigned) [Example 283] |
| < 5 | CC[C@@H](CC(=O)O)c1ccc(N(CC)C2CCCCC2)c(Nc2ccc(OC(F)F)cc2)c1 (single isomer, unassigned) [Example 284] |
| < 5 | CC[C@H](CC(=O)O)c1ccc(N(CC)C2CCCCC2)c(Nc2ccc(Cl)cc2)c1 (single isomer, unassigned) [Example 285] |
